{"source": "patent US11560400B2", "about": "“Salts of diphosphate phosphoramidate of nucleosides as anticancer compounds” (NuCana plc, priority 2017, dated 2023)", "type_in_all_cases": "cell-based", "key": {"[1]": {"test_system": "RL", "assay": "CellTiterGlo cell viability assay, RL", "conditions": "Homo sapiens, 72 h; for EC50: read-out: Ab EC50", "how_it_was_run": "(§1)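 72 h CTG viability; 9-pt, 3.16-fold titration, 198 μM top to 19.8 nM final; duplicates; 0.5% DMSO final; standard growth conditions. Read-out: absolute EC50 and % inhibition at highest concentration.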"}, "[2]": {"test_system": "HL-60", "assay": "CellTiterGlo cell viability assay, HL-60", "conditions": "HL-60, 72 h; for EC50: read-out: Ab EC50", "how_it_was_run": "as §1"}, "[3]": {"test_system": "KG-1", "assay": "CellTiterGlo cell viability assay, KG-1", "conditions": "Homo sapiens, KG-1, 72 h", "how_it_was_run": "as §1"}, "[4]": {"test_system": "MCF-7", "assay": "CellTiterGlo cell viability assay, MCF-7", "conditions": "Homo sapiens, MCF7, 72 h, MCF-7, 72 h; for EC50: read-out: Ab EC50", "how_it_was_run": "as §1"}, "[5]": {"conditions": "percentage inhibition at the highest concentration tested, read-out: Top Inhibit"}}, "note": "Like-named read-outs stand apart in the source and are kept apart here."}
{"smiles": "Nc1nc(Cl)nc2c1ncn2[C@@H]1O[C@H](CO)[C@@H](O)[C@@H]1F", "note": "[Clofarabine, reference compound]", "values": [{"measurement": "EC50", "setting": "[1]; Table 3 classes", "result": "200 to 2000", "unit": "nM"}, {"measurement": "EC50", "setting": "[1]; Table 4 classes", "result": "200 to 1000", "unit": "nM"}, {"measurement": "inhibition at 198 µM", "setting": "[1]; percentage inhibition at the highest concentration tested, read-out: Top Inh", "result": 77, "unit": "%"}, {"measurement": "EC50", "setting": "[2]; Table 4 classes", "result": "< 200", "unit": "nM"}, {"measurement": "EC50", "setting": "[2]; Homo sapiens, Table 3 classes", "result": "< 200", "unit": "nM"}, {"measurement": "inhibition at 198 µM", "setting": "[2]; Homo sapiens, percentage inhibition at the highest concentration tested, read-out: Top Inh", "result": 97, "unit": "%"}, {"measurement": "EC50", "setting": "[3]; Table 4 classes, read-out: Ab EC50", "result": "< 200", "unit": "nM"}, {"measurement": "inhibition at 198 µM", "setting": "[3]; [5]", "result": 93, "unit": "%"}, {"measurement": "EC50", "setting": "[4]; Table 3 classes", "result": "200 to 2000", "unit": "nM"}, {"measurement": "EC50", "setting": "[4]; Table 4 classes", "result": "200 to 1000", "unit": "nM"}, {"measurement": "inhibition at 198 µM", "setting": "[4]; [5]", "result": 55, "unit": "%"}]}
